Results reported in EP0443559A2, “HIV protease inhibiting agents” (BIO-MEGA/BOEHRINGER INGELHEIM RESEARCH INC., priority 1990, dated 1991).

Assays:
HIV protease = HIV protease (Human immunodeficiency virus type 1 group M subtype B, UniProt P04585); experiment: biochemical
Excerpt: The procedure is based on the capacity of the test compound to inhibit enzymatic cleavage by HIV protease of a decapeptide (the substrate) having an amino acid sequence which includes a known HIV protease cleavage site of a HIV polyprotein; see H.G. Krausslich et al., Proc. Natl. Acad. Sci. USA, 86,807(1989).
Recombinant HIV Protease HPLC Assay: Enzyme: HIV protease was expressed in E. coli [construct pBRT1 prt⁺, see W.G. Farmerie et al., Science, 236, 305 (1987)], according to the following protocol: Unless stated otherwise, all solutions are aqueous solutions.
E. coli cells containing the pBRT1 prt⁺ plasmid were used to inoculate a seed culture media composed of Luria-Bertani Broth containing 100µg/mL of ampicillin. Flasks were incubated at 37° under agitation for 17 h. Production flasks containing sterile M9 broth, supplemented with 100µg/ml of ampicillin, were inoculated at a level of 1% (v/v) using the seed culture described above. Total volume in each production flask was 500 mL in a 2 L Erlenmeyer flask. Flasks were incubated at 37° under agitation until a cell concentration corresponding to an optical density (λ= 540 m) of 0.6 was reached (no dilution). This time span was routinely 3-4 h. Flasks were then supplemented with 5mM isopropylthiogalactoside (IPTG, Research Organics, Cleveland, Ohio, USA) and incubation was continued until the cell concentration reached an optical density of 0.2 at 16-fold dilution. Flasks were then supplemented with 1mM phenylmethylsulfonyl fluoride (PMSF) and rapidly chilled to 4°. The bacterial cells were recovered by centrifugation at 4°. The wet pellet was stored at -70°.
All steps below were performed at 4° unless otherwise indicated. Thawed cells were mixed with buffer A [50 mM […] HCl(Tris-HCl, pH 7.4); 0.6 mM ethylenediaminetetraacetic acid (EDTA); 0.375 M NaCl, 0.2% Nonidet P-40 ^R (BDH Chemicals Ltd., Poole, UK); 1mM PMSF], at a ratio of one part cells to nine parts buffer A. Diatomaceous earth (Celite 545 ^R , John Manville, Lompoc, CA, USA) was added at a ratio of two parts to one part of wet cell weight. The resulting slurry was homogenized at high speed (ca. 20,000 rpm) on a Waring ^R industrial blender for 8 x 15 sec. pulses. Cell debris/Celite ^R was collected by centrifugation and the resulting pellet was extracted with 4.5 parts of buffer A to one part wet solids using the homogenization procedure described above. Supernatants from both homogenization steps were combined and soluble protein was precipitated by the addition of solid (NH₄)₂SO₄ to yield a final concentration of 75% saturation. This mixture was agitated for 60 min and the precipitate was recovered by centrifugation. The resulting pellet was suspended in buffer B [50mM Tris-HCl, pH 8; 30 mM NaCl; 1 mM DL-dithio-threitol (DTT); 1 mM EDTA; 1 mM PMSF; 10% glycerol], and dialyzed for 18h against the same buffer.
An aliquot of the dialyzed extract containing 150 mg of the protein was loaded onto a Sephadex A25 ^R anion exchange column. (Pharmacia, Uppsala, Sweden) with bed dimensions of 70 cm length and 2.5 cm diameter. The sample was eluted isocratically with buffer B at a linear flow rate of 10 cm/h. Fractions containing HIV protease activity (see below for assay description) were combined, and soluble protein was precipitated by the addition of saturated aqueous (NH₄)₂SO₄ to yield a total (NH₄)₂SO₄ concentration of 85% saturation. Precipitated protein was removed by centrifugation and the resulting pellet was dissolved in buffer C [50 mM 2-(4-morpholino)ethanesulfonic acid (MES), pH 5.5; 150 mM NaCl; 1 mM DTT; 1 mM EDTA; 10% glycerol]. This preparation was dialyzed for 18h against buffer C, and then frozen at -70°. All crude extracts were purified by chromatography in aliquots containing 150 mg of protein in the same manner as described above. The final preparations from each batch were pooled, divided into 34µL aliquots and stored at -70°.

HIV = conditions: at 20µg/mL; C8166 cells, H9/HTLV-IIIB, 72 h
Method: The following protocol, used for screening antiviral effects of the compounds of formula 1, is adapted from a plaque assay utilizing HTLV-I transformed cells which was developed by Harada et al., supra. HTLV-I transformed cells are used in these assays because of the rapidity with which HIV will replicate in these cells. • 1. The test compound is dissolved in dimethylsulfoxide to a concentration of 5 mg/mL. The resultant solution can be stored at 4° until used. • 2. The resultant solution is diluted in RPMI 1640 (Gibco Laboratories, St. Lawrence, MA, USA) to four times (4x) the final concentration which is to be tested. Once diluted in RPMI 1640, the solution is used in the cell culture assay within 4 h. • 3. The 4x solution (50µL) is added to triplicate wells of a 96 well flat bottomed microtiter plate. RPMI 50µL also is added to control wells. • 4. C8166 cells (5 x 10⁻⁴) in 50 µL of HEPES-buffered RPMI 1640, 10% heat inactivated fetal calf serum (FCS), 12.5µL/ml gentamicin (complete media) are added to all wells. • 5. […] Infectious titer of virus stocks are as previously determined by end point dilution on C8166 cells. […] Plates are then removed and centers of syncytia are counted in each well by low power phase contrast light microscopy. […] Percent inhibition of syncytia formation is calculated by the formula: [formula]

SMILES	IC50 (HIV protease) [nM]	inhibition of syncytia formation (HIV) [%]
CC(C)C[C@H](NC(=O)C[C@H](O)[C@H](CC1CCCCC1)NC(=O)[C@@H](NC(=O)CCc1ccc(OCC(=O)OCc2ccccc2)cc1)C(C)C)C(=O)N[C@@H](Cc1ccccc1)C(N)=O [Example 2, [4-(BzlOC(O)CH₂O)Ph]CH₂CH₂C(O)-Val-ACHPA-Leu-Phe-NH₂]	170	–
CC(C)C[C@H](NC(=O)C[C@H](O)[C@H](CC1CCCCC1)NC(=O)[C@@H](NC(=O)[C@@H](O)CO)C(C)C)C(=O)N[C@@H](Cc1ccccc1)C(N)=O [Example 4, [(S)-HOCH₂CH(OH)C(O)]-Val-ACHPA-Leu-Phe-NH₂]	180	–
CC(=O)N[C@H](C(=O)N[C@@H](CC1CCCCC1)[C@@H](O)CC(=O)N[C@@H](CC(C)C)C(=O)N[C@@H](Cc1ccccc1)C(N)=O)C(C)C [Example 5, Ac-Val-ACHPA-Leu-Phe-NH₂]	280	97
CC(=O)N[C@H](C(=O)N[C@@H](CC1CCCCC1)[C@@H](O)CC(=O)N[C@@H](CC(C)C)C(=O)N[C@@H](Cc1ccccc1)C(N)=O)C(C)(C)C [Example 11, Ac-Tbg-ACHPA-Leu-Phe-NH₂]	200	72
CC[C@H](C)[C@H](NC(=O)[C@H](CCC(=O)O)NC(=O)[C@H](CC(C)C)NC[C@H](Cc1ccccc1)NC(=O)[C@@H](NC(C)=O)C(C)C)C(N)=O [Example 12, Ac-Val-Pheψ[CH₂NH]Leu-Glu-Ile-NH₂]	6.7	–
CC[C@H](C)[C@H](NC(=O)[C@H](CCC(N)=O)NC(=O)[C@H](CC(C)C)NC[C@H](Cc1ccccc1)NC(=O)[C@@H](NC(C)=O)[C@@H](C)CC)C(N)=O [Example 16, Ac-Ile-Pheψ[CH₂NH]Leu-Gln-Ile-NH₂]	180	–
CC[C@H](C)[C@H](NC(=O)[C@H](CCC(N)=O)NC(=O)[C@H](CC(C)C)NC[C@H](Cc1ccccc1)NC(=O)[C@@H](NC(=O)[C@H](C)O)C(C)C)C(N)=O [Example 19, [(S)-CH₃CH(OH)C(O)]-Val-Pheψ[CH₂NH]Leu-Gln-Ile-NH₂]	660	–
CC[C@H](C)[C@H](NC(=O)[C@H](CCC(N)=O)NC(=O)[C@H](CC(C)(C)C)NC[C@H](Cc1ccccc1)NC(=O)[C@@H](NC(C)=O)C(C)C)C(N)=O [Example 21, Ac-Val-Pheψ[CH₂NH]Tba-Gln-Ile-NH₂]	720	–
CC(=O)N[C@H](C(=O)N[C@H](CN[C@@H](CC(C)C)C(=O)N[C@H](C(=O)N[C@@H](COCc1ccccc1)C(N)=O)C(C)C)Cc1ccccc1)C(C)C [Example 22, Ac-Val-Pheψ[CH₂NH]Leu-Val-Ser(OBzl)-NH₂]	29	–
